In the case of C[C@@H](S[C@H]1CO[C@H](c2ccc(C(=O)Nc3ccc(C#N)c(Cl)c3)cc2)OC1)[C@](O)(Cn1cncn1)c1ccc(F)cc1F, the melting point is reported as 115 °C.
In the case of C[C@@H](S[C@H]1CO[C@H](c2ccc(C(=O)Nc3ccc(C#N)cc3)cc2)OC1)[C@](O)(Cn1cncn1)c1ccc(F)cc1F [Example 2, 4′-Cyano-4-[trans-5-[[(1R,2R)-2-(2,4-difluorophenyl)-2-hydroxy-1-methyl-3-(1H-1,2,4-triazol-1-yl)propyl]thio]-1,3-dioxan-2-yl]benzanilide], the melting point is reported as 176 °C.
C[C@@H](C[C@H]1CO[C@H](c2ccc(C(=O)Nc3ccc(C#N)cc3)cc2)OC1)[C@](O)(Cn1cncn1)c1ccc(F)cc1F [Example 4, 4′-Cyano-4-[trans-5-[(2S,3R)-3-(2,4-difluorophenyl)-3-hydroxy-2-methyl-4-(1H-1,2,4-triazol-1-yl)butyl]-1,3-dioxan-2-yl]benzanilide] gave a melting point of 159 °C.
Work on C[C@@H](S[C@H]1CO[C@H](c2ccc(C(=O)Nc3ccc(C#N)cc3)cc2F)OC1)[C@](O)(Cn1cncn1)c1ccc(F)cc1F [Example 5, 4′-Cyano-4-[trans-5-[[(1R,2R)-2-(2,4-difluorophenyl)-2-hydroxy-1-methyl-3-(1H-1,2,4-triazol-1-yl)propyl]thio]-1,3-dioxan-2-yl]-3-fluorobenzanilide] yielded a melting point of 110 °C.
Work on C[C@@H](S[C@H]1CO[C@H](c2cccc(C(=O)Nc3ccc(C#N)cc3)c2)OC1)[C@](O)(Cn1cncn1)c1ccc(F)cc1F [Example 6, 4′-Cyano-3-[trans-5-[[(1R,2R)-2-(2,4-difluorophenyl)-2-hydroxy-1-methyl-3-(1H-1,2,4-triazol-1-yl)propyl]thio]-1,3-dioxan-2-yl]benzanilide] yielded a melting point of 105 °C.
With C[C@@H](S[C@H]1CO[C@H](c2ccc(C(=O)Nc3ccc(CC#N)cc3)cc2)OC1)[C@](O)(Cn1cncn1)c1ccc(F)cc1F [Example 7, 4′-(Cyanomethyl)-4-[trans-5-[[(1R,2R)-2-(2,4-difluorophenyl)-2-hydroxy-1-methyl-3-(1H-1,2,4-triazol-1-yl)propyl]thio]-1,3-dioxan-2-yl]benzanilide] the melting point was 188 °C.
For C[C@@H](S[C@H]1CO[C@H](c2ccc(C(=O)Nc3ccc(Cl)cc3)cc2)OC1)[C@](O)(Cn1cncn1)c1ccc(F)cc1F [Example 8, 4′-Chloro-4-[trans-5-[[(1R,2R)-2-(2,4-difluorophenyl)-2-hydroxy-1-methyl-3-(1H-1,2,4-triazol-1-yl)propyl]thio]-1,3-dioxan-2-yl]benzanilide], the melting point was 210 °C.
C[C@@H](S[C@H]1CO[C@H](c2ccc(C(=O)Nc3ccc(F)cc3)cc2)OC1)[C@](O)(Cn1cncn1)c1ccc(F)cc1F [Example 10, 4-[trans-5-[[(1R,2R)-2-(2,4-Difluorophenyl)-2-hydroxy-1-methyl-3-(1H-1,2,4-triazol-1-yl)propyl]thio]-1,3-dioxan-2-yl]-4′-fluorobenzanilide] showed a melting point of 104 °C.
Compound C[C@@H](S[C@H]1CO[C@H](c2ccc(C(=O)Nc3ccc(C(F)(F)F)cc3)cc2)OC1)[C@](O)(Cn1cncn1)c1ccc(F)cc1F [Example 11, 4-[trans-5-[[(1R,2R)-2-(2,4-Difluorophenyl)-2-hydroxy-1-methyl-3-(1H-1,2,4-triazol-1-yl)propyl]thio]-1,3-dioxan-2-yl]-4′-(trifluoromethyl)benzanilide] has a melting point of 210 °C.
C[C@@H](S[C@H]1CO[C@H](c2ccc(C(=O)Nc3ccc(OC(F)(F)F)cc3)cc2)OC1)[C@](O)(Cn1cncn1)c1ccc(F)cc1F [Example 12, 4-[trans-5-[[(1R,2R)-2-(2,4-Difluorophenyl)-2-hydroxy-1-methyl-3-(1H-1,2,4-triazol-1-yl)propyl]thio]-1,3-dioxan-2-yl]-4′-(trifluoromethoxy)benzanilide] gave a melting point of 180 °C.
Compound C[C@@H](S[C@H]1CO[C@H](c2ccc(C(=O)Nc3ccc(SC(F)(F)F)cc3)cc2)OC1)[C@](O)(Cn1cncn1)c1ccc(F)cc1F [Example 13, 4-[trans-5-[[(1R,2R)-2-(2,4-Difluorophenyl)-2-hydroxy-1-methyl-3-(1H-1,2,4-triazol-1-yl)propyl]thio]-1,3-dioxan-2-yl]-4′-(trifluoromethylthio)benzanilide] has a melting point of 95 °C.
In the case of Cc1ccc(NC(=O)c2ccc([C@H]3OC[C@H](S[C@H](C)[C@](O)(Cn4cncn4)c4ccc(F)cc4F)CO3)cc2)cc1 [Example 14, 4-[trans-5-[[(1R,2R)-2-(2,4-Difluorophenyl)-2-hydroxy-1-methyl-3-(1H-1,2,4-triazol-1-yl)propyl]thio]-1,3-dioxan-2-yl]-4′-methylbenzanilide], the melting point is reported as 101 °C.
In the case of C[C@@H](S[C@H]1CO[C@H](c2ccc(C(=O)Nc3ccc(Br)cc3)cc2)OC1)[C@](O)(Cn1cncn1)c1ccc(F)cc1F [Example 15, 4′-Bromo-4-[trans-5-[[(1R,2R)-2-(2,4-difluorophenyl)-2-hydroxy-1-methyl-3-(1H-1,2,4-triazol-1-yl)propyl]thio]-1,3-dioxan-2-yl]benzanilide], the melting point is reported as 221 °C.
In the case of C[C@@H](S[C@H]1CO[C@H](c2ccc(C(=O)Nc3ccncc3)cc2)OC1)[C@](O)(Cn1cncn1)c1ccc(F)cc1F [Example 17, 4-[trans-5-[[(1R,2R)-2-(2,4-Difluorophenyl)-2-hydroxy-1-methyl-3-(1H-1,2,4-triazol-1-yl)propyl]thio]-1,3-dioxan-2-yl]-N-(4-pyridyl)benzamide], the melting point is reported as 133 °C.
C[C@@H](S[C@H]1CO[C@H](c2ccc(C(=O)Nc3ccc([N+](=O)[O-])cc3)cc2)OC1)[C@](O)(Cn1cncn1)c1ccc(F)cc1F [Example 18] showed a melting point of 189 °C.
Work on C[C@@H](S[C@H]1CO[C@H](c2ccc(C(=O)Nc3ccc(C#N)c4ccccc34)cc2)OC1)[C@](O)(Cn1cncn1)c1ccc(F)cc1F [Example 19, N-(4-Cyano-1-naphthyl)-4-[trans-5-[[(1R,2R)-2-(2,4-difluorophenyl)-2-hydroxy-1-methyl-3-(1H-1,2,4-triazol-1-yl)propyl]thio]-1,3-dioxan-2-yl]benzamide] yielded a melting point of 109 °C.
C[C@@H](S[C@H]1CO[C@H](c2ccc(C(=O)Nc3c(F)c(F)c(C#N)c(F)c3F)cc2)OC1)[C@](O)(Cn1cncn1)c1ccc(F)cc1F [Example 20, 4′-Cyano-4-[trans-5-[[(1R,2R)-2-(2,4-difluorophenyl)-2-hydroxy-1-methyl-3-(1H-1,2,4-triazol-1-yl)propyl]thio]-1,3-dioxan-2-yl]-2′,3′,5′,6′-tetrafluorobenzanilide] showed a melting point of 182 °C.
For C[C@@H](S[C@H]1CO[C@H](c2ccc(C(=O)Nc3ccc(C#N)c(C#N)c3)cc2)OC1)[C@](O)(Cn1cncn1)c1ccc(F)cc1F [Example 21, 3′,4′-Dicyano-4-[trans-5-[[(1R,2R)-2-(2,4-difluorophenyl)-2-hydroxy-1-methyl-3-(1H-1,2,4-triazol-1-yl)propyl]thio]-1,3-dioxan-2-yl]benzanilide], the melting point was 182 °C.
With CC(=O)c1ccc(NC(=O)c2ccc([C@H]3OC[C@H](S[C@H](C)[C@](O)(Cn4cncn4)c4ccc(F)cc4F)CO3)cc2)cc1 [Example 22, 4′-Acetyl-4-[trans-5-[[(1R,2R)-2-(2,4-difluorophenyl)-2-hydroxy-1-methyl-3-(1H-1,2,4-triazol-1-yl)propyl]thio]-1,3-dioxan-2-yl]benzanilide] the melting point was 171 °C.
With CC(=O)Oc1ccc(NC(=O)c2ccc([C@H]3OC[C@H](S[C@H](C)[C@](O)(Cn4cncn4)c4ccc(F)cc4F)CO3)cc2)cc1 [Example 24, 4′-Acetoxy-4-[trans-5-[[(1R,2R)-2-(2,4-difluorophenyl)-2-hydroxy-1-methyl-3-(1H-1,2,4-triazol-1-yl)propyl]thio]-1,3-dioxan-2-yl]benzanilide] the melting point was 127 °C.
For C[C@@H](S[C@H]1CO[C@H](c2ccc(C(=O)Nc3ccc(C#N)cc3F)cc2)OC1)[C@](O)(Cn1cncn1)c1ccc(F)cc1F [Example 25, 4′-Cyano-2′-fluoro-4-[trans-5-[[(1R,2R)-2-(2,4-difluorophenyl)-2-hydroxy-1-methyl-3-(1H-1,2,4-triazol-1-yl)propyl]thio]-1,3-dioxan-2-yl]benzanilide], the melting point was 136 °C.
For C[C@@H](S[C@H]1CO[C@H](c2ccc(C(=O)Nc3nccs3)cc2)OC1)[C@](O)(Cn1cncn1)c1ccc(F)cc1F [Example 27, 4-[trans-5-[[(1R,2R)-2-(2,4-Difluorophenyl)-2-hydroxy-1-methyl-3-(1H-1,2,4-triazol-1-yl)propyl]thio]-1,3-dioxan-2-yl]-N-(2-thiazolyl)benzamide], the melting point was 108 °C.
For C[C@@H](S[C@H]1CO[C@H](c2ccc(C(=O)Nc3nc4ccccc4s3)cc2)OC1)[C@](O)(Cn1cncn1)c1ccc(F)cc1F [Example 28, N-(Benzothiazol-2-yl)-4-[trans-5-[[(1R,2R)-2-(2,4-difluorophenyl)-2-hydroxy-1-methyl-3-(1H-1,2,4-triazol-1-yl)propyl]thio]-1,3-dioxan-2-yl]benzamide], the melting point was 107 °C.
Work on C[C@@H](S[C@H]1CO[C@H](c2ccc(C(=O)NCc3cccc4ccccc34)cc2)OC1)[C@](O)(Cn1cncn1)c1ccc(F)cc1F [Example 29, 4-[trans-5-[[(1R,2R)-2-(2,4-Difluorophenyl)-2-hydroxy-1-methyl-3-(1H-1,2,4-triazol-1-yl)propyl]thio]-1,3-dioxan-2-yl]-N-[(1-naphthyl)methyl]benzamide] yielded a melting point of 97 °C.
With C[C@@H](S[C@H]1CO[C@H](c2ccc(C(=O)Nc3ccc(C(N)=O)cc3)cc2)OC1)[C@](O)(Cn1cncn1)c1ccc(F)cc1F [Example 30, 4′-Carbamoyl-4-[trans-5-[[(1R,2R)-2-(2,4-difluorophenyl)-2-hydroxy-1-methyl-3-(1H-1,2,4-triazol-1-yl)propyl]thio]-1,3-dioxan-2-yl]benzanilide] the melting point was 230 °C.

Source: patent US6653330B2, “Amide-type triazole compounds” (Sankyo Company, Limited, priority 2000, dated 2003)
